The text below walks through data of publication PMC9719539, “Single-molecule characterization of subtype-specific β1 integrin mechanics” (Nature Communications, 2022).

For one assay, the target named is T1, integrin αVβ3 (Homo sapiens, UniProt P05106+P06756).
T1 construct: expressed in transfected cells
Nature of the assay: Competition with cRGDfK-TF5WS binding to αVβ3 on K562 transfectants. From the text:
(§1) Source data are provided as a Source Data file. […]
(§2) Source data are provided as a Source Data file.
(§3) (1 picture or pasted object on this page, not shown here)

The target in another assay is T2, integrin αVβ5 (Homo sapiens, UniProt P06756+P18084).
T2 construct: expressed in transfected cells
Briefly: Competition with cRGDfK-TF5WS binding to αVβ5 on K562 transfectants.
Description: as §1, §2, §3

Assay [1] relates to BJ-5ta cells. Briefly: Cytoskeletal inhibitor effects on TGT rupture and spreading. Type of assay: cell-based, human. To be noted: for TGT rupture with inhibitor (in words), all substrates / cell spreading with inhibitor (in words): 1 h; for TGT rupture with inhibitor (in words), all substrates: inhibitors 5 min preincubation; for cell spreading with inhibitor (in words): RGD- and LDVP-TGT. From the text:
(21 pictures or pasted objects on this page, not shown here)

For assay [2], the system named is BJ-5ta cells. Nature of the assay: Percentage of spread cells / cell spreading on TGT surfaces. The format is cell-based, human. To be noted: for tension threshold for cell spreading: 1 h, nominal Ttol. How it is done:
Glass coverslips were densely PEGylated to minimize non-specific interactions such as the binding of cell-secreted extracellular matrix proteins. Coverslips cleaned by piranha etching solution (a 3:1 mixture of sulfuric acid and hydrogen peroxide) were incubated in silanization solution (UCT, 1760-24-3; 2% aminosilane and 5% acetic acid in methanol) for 30 min and reacted with a mixture of Polyethylene glycol (PEG) with and without biotin (1:19, 150 mg/ml; Laysan Bio, Biotin-PEG-SVA-5000 and MPEG-SVA-5000) for 4 h. Surfaces were washed thoroughly and dried using nitrogen gas after each step. A 3D-printed dish (PLA) or a silicon gasket (Grace Bio Labs, 103280) was attached to the coverslip to form a dish. Neutravidin (Thermo Fisher scientific, 31000; 0.4 mg/ml) was added to the dish for 10 min and washed out thoroughly. The dish was emptied and a droplet (3 µL) of TGT solution (100 nM unless specified otherwise) was placed on the coverslip for 10 min in a humid condition to locally immobilize TGT. For the lateral drift correction for time-resolved TGT rupture analysis, biotin-coated gold nanoparticles (Luna Nanotech, GNP-BIOT-100-2-04; 100 nm) were sparsely immobilized as fiducial markers. For protein ligand coating, protein (50 ug/ml in PBS) was incubated in glass bottomed imaging dishes for 1 h at RT without additional passivation.
The cells were gently harvested by washing in PBS for 1 min, incubating with 0.05% trypsin for 3 min, and then neutralizing with cell culture medium (FBS 10%). The cells were spun down and resuspended with Leibovitz’s L-15 Medium (Gibco, 21083027) supplemented with 2 g/L glucose, then seeded on the TGT surface at an approximate density of 30 cells/mm^2. For integrin inhibition experiments, cells were incubated with Fab for 5 min before seeding. For cell immobilization experiments, cells were incubated with 1 nM Cholesterol-PEG-Biotin (Nanosoft Polymers, 3084-2000) for 5 min, followed by washes by centrifugation to remove biotin in solution before seeding. The imaging area was humidified and the temperature was maintained at 37 °C. A Nikon Eclipse Ti microscope equipped with Xenon arc lamp, Nikon perfect focus system, custom total internal reflection fluorescence microscopy (TIRFM) module, and custom reflection interference contrast microscopy (RICM) module was driven by Elements software. Dark regions in RICM show where cells have closely adhered to the surface (≪300 nm gap). Nikon 10X objective (CFI60 Plan Fluor) and 60X objective (CFI60 Apochromat TIRF) with DIC filter sets were used. […] Images were recorded using an electron-multiplying charge-coupled device (EMCCD; Andor iXon 888).
Single-cell data were obtained from multiple independent sample preparations for each condition as specified. Percentage of spread cells was obtained from three independent experiments. Statistical analyses were performed using MATLAB software. Two-sided (two sample) t-test was used for two group comparisons. Each group was compared with the control group unless specified otherwise. Representative micrographs are selected from at least two independent experiments.

Assay [3] deals with BJ-5ta cells. Nature of the assay: Actin retrograde flow rate (kymographs, SiR-actin). The format is cell-based, human. To be noted: 64, 71 loci from 15, 13 cells. The method, then:
BJ-5ta cells were seeded on RGD-54pN or LDVP-54pN surfaces for 40 min and 20 nM SiR-actin and 10 µM verapamil (Cytoskeleton, CY-SC001) were added 20 min before imaging. Time-lapse TIRF imaging (640 nm) was done with 2–5 s interval for more than 60 frames. Kymographs were generated with ImageJ and the linear fit analysis was done with MATLAB scripts.

The subject of assay [4] is extended-open β1 integrin on BJ-5ta cells. Nature of the assay: β1 integrin activation: number and density of bound AF647-12G10 Fab on biotin-PEG-cholesterol immobilized cells. Type of assay: cell-based, human.

The IC50 is the concentration at which inhibition is half-maximal. Lower therefore signals greater potency. As usually defined, the Kd is a measure of binding affinity in units of concentration. By EC50 is commonly meant the concentration giving half of the maximal effect.

A value given as a limit tells only on which side of the number the result lay.

Consider `C[C@H](N)C(=O)N[C@H]1CSSC[C@@H](C(=O)NCC(=O)O)NC(=O)[C@H](Cc2c[nH]c3ccccc23)NC(=O)CNC(=O)[C@H](CC(=O)O)NC(=O)CNC(=O)[C@H](CCCNC(=N)N)NC1=O`, for which the IC50 on integrin αVβ3 amounted to 765 ± 84 nM. Also, the Kd was determined as 170 ± 20 nM on integrin αVβ3 (Kd αVβ3, L15 + 1 mM Mn2+, 1% BSA, competition with 25 nM cRGDfK-TF5WS); 530 ± 60 nM on integrin αVβ3 (Kd αVβ3, L15, 1% BSA, no Mn2+, competition with cRGDfK-TF5WS (25 nM for Fabs, 50 nM for ACRGDGWCG), Kd = EC50/(1+CL/Kd,L)); 50 ± 4 nM at integrin αVβ5 (Kd αVβ5, L15 + 1 mM Mn2+, 1% BSA, competition with 25 nM cRGDfK-TF5WS). Besides, the EC50 on integrin αVβ5 (EC50 αVβ5, L15 + 1 mM Mn2+, competition with 25 nM cRGDfK-TF5WS) stood at 102 ± 7 nM; on integrin αVβ5 (EC50 αVβ5, L15, no Mn2+, competition with 50 nM cRGDfK-TF5WS), 367 ± 29 nM.
`Cc1[nH]c2ccccc2c1CCNC(=O)c1ccccc1F` [CK666]: in the assay with BJ-5ta cells [1], the “TGT rupture with inhibitor (in words), all substrates” value (from here on “TGT rupture with inhibitor (in words)”) is reported as “no significant effect”.
Regarding `C=C1[C@@H](C)[C@H]2[C@H](Cc3ccccc3)NC(=O)[C@]23[C@H](OC(C)=O)/C=C/[C@@](C)(O)C(=O)[C@@H](C)C/C=C/[C@H]3[C@@H]1O` [Cytochalasin D], in the assay on BJ-5ta cells [1], the “TGT rupture with inhibitor (in words)” value is on record as “eliminated TGT rupture on all substrates” and the “cell spreading with inhibitor (in words)” value is “inhibited cell spreading”.
Turning to `O=S(=O)(c1cccc2c(I)cccc12)N1CCCNCC1` [ML-7], in the assay with BJ-5ta cells [1] (RGD-54pN), the “rupture of RGD-54pN with inhibitor (in words)” value is on record as “significantly suppressed”. Besides, the “cell spreading with inhibitor (in words)” value in the assay with BJ-5ta cells [1] is “did not disrupt cell spreading”.
For the compound `O=C1NC(=S)N(c2cccc(Br)c2)C(=O)/C1=C/c1ccco1` [SMIFH2], in the assay on BJ-5ta cells [1], the “TGT rupture with inhibitor (in words)” value is reported as “greatly diminished TGT rupture” and the “cell spreading with inhibitor (in words)” value is on record as “greatly decreased spreading”.
With `C[C@@H](N)[C@H]1CC[C@H](C(=O)Nc2ccncc2)CC1` [Y-27632], the “rupture of RGD-54pN with inhibitor (in words)” value in the assay on BJ-5ta cells [1] (RGD-54pN) is given as “significantly suppressed”. In the assay on BJ-5ta cells [1], the “cell spreading with inhibitor (in words)” value is reported as “did not disrupt cell spreading”.
`Cc1ccc2c(c1)C(=O)[C@]1(O)CCN(c3ccc(N)cc3)C1=N2` [para-amino-blebbistatin]: the “rupture of LDVP-12pN with inhibitor (in words)” value in the assay on BJ-5ta cells [1] (LDVP-12pN, 50 uM, listed as para-amino-Blebbistatin) was “no role”. In the assay with BJ-5ta cells [1] (LDVP-33pN), the “share of rupture requiring myosin II (para-amino-Blebbistatin)” value is on record as “about one third”. The “rupture of LDVP-33pN with inhibitor (in words)” value with BJ-5ta cells [1] (LDVP-33pN, 50 uM) is “significantly reduced rupture events”. For the same compound, in the assay on BJ-5ta cells [1] (RGD-54pN), the “rupture of RGD-54pN with inhibitor (in words)” value was “significantly suppressed” and the “share of rupture requiring myosin II (para-amino-Blebbistatin)” value was “half”. Besides, the “cell spreading with inhibitor (in words)” value in the assay on BJ-5ta cells [1] is “did not disrupt cell spreading”.
For the compound “MUPA-LDVPAAK [LDVP-TGT, tension gauge tether conjugated with MUPA-LDVPAAK]”, the “tension threshold for cell spreading” value in the assay with BJ-5ta cells [2] was under 12 pN. In addition, in the assay with BJ-5ta cells [2] (1 h after seeding), the “cell spreading (in words)” value was “adhered and spread well”. Also, in the assay on BJ-5ta cells [3], the retrograde actin flow is on record as 24.8 nm/s. The “force needed for activation of β1 integrin to high affinity state” value in assay [4] is reported as “less than 12 pN”. In addition, in assay [4] (versus control, 30 min), the “12G10 Fab density / activated β1 density (in words)” value is “significantly above the control and similar at all Ttol”.
For “cyclo [Arg-Gly-Asp-D-Phe-Lys(8-amino-3,6-dioxaoctanoic acid dimer)] (head to tail) [RGD-TGT]”, the “tension threshold for cell spreading” value in the assay on BJ-5ta cells [2] was 33–43 pN. The same compound had a retrograde actin flow with BJ-5ta cells [3] of 10.1 nm/s.
Turning to “proTGF-β1: physiologic macromolecular ligand with RGD motif”, the “cell morphology (in words)” value with BJ-5ta cells [2] (1 h after seeding) is on record as “elongated with irregular lamellipodia”.
